Experimental data: patent US6900184B2, “Compositions containing pipercillin and tazobactam useful for injection” (Wyeth Holdings Corporation, priority 2003, dated 2005)

Experiment: Light obscuration particulate testing (HIAC-3000, based on USP 788), at time zero and 24 hours
Type: physicochemical
Conditions: in Zosyn solutions, summary of Table 1
Method: Samples are prepared according to the compositions described in Table I. […] The fluid in the bag is mixed with gentle inversions for about 30 seconds. • The bags are labeled with identity and reconstitution time. • When added, aminoglycosides are added immediately. The fluid in the bag is mixed with gentle inversions for about 30 seconds. • A 50 ml sample is drawn with a 60 cc syringe fitted with a 21-gauge needle. • A clean, particle free vial is rinsed with water for injection, and then filled with about 45 ml of the sample. HIAC testing is performed immediately. • Into a suitably sized sample vial, a 3 ml sample is prepared for HPLC testing. HPLC testing is begun within an hour of sample preparation (Table 1). The remainder of the Zosyn® admixture samples (about 50 ml) are stored in a closed cabinet in the laboratory, at ambient temperature and tested again 24 hours later (Table 1). Light obscuration testing is performed using a HIAC-3000. A testing method, based on USP 788 is followed for the analysis. (See TABLE I) The data is reported on a particle per ml basis. […] The same sample was resampled and analyzed 24 hours after the first test. A summary of the HIAC data is provided as Table I.

| Compound | effect of added EDTA (edetate disodium dihydrate) on number of particles generated | effect of added aminoglycoside on number of particles generated |
| --- | --- | --- |
| O=C(O)CN(CCN(CC(=O)O)CC(=O)O)CC(=O)O [EDTA, ethylene diamine tetraacetic acid] | significantly reduces the number of particles generated in 24 hours |  |
| NCC[C@H](O)C(=O)N[C@@H]1C[C@H](N)[C@@H](O[C@H]2O[C@H](CN)[C@@H](O)[C@H](O)[C@H]2O)[C@H](O)[C@H]1O[C@H]1O[C@H](CO)[C@@H](O)[C@H](N)[C@H]1O [amikacin] |  | increases the number of particles generated in 24 hours |
